Test results published in patent US9980479B2, “Method of reducing nematode damage” (Syngenta Crop Protection, LLC, priority 2004, dated 2018).
Where two headings read alike, the source gives them in different places.

Tests used:
[1] = system: nematodes (Pratylenchus spp.); details: tomato; for % yield increase over check / Total average weight of tomatoes per treatment: at harvest; for % damage of roots: drench 1, 14, 27 and 40 days after transplantation
Method: Tomato plants are transplanted into a field infested with nematodes (Pratylenchus spp.) and treated with the treatments indicated in Table I below 1, 14, 27 and 40 days after transplantation. The products are applied by drenching 100 ml spray solution per plant. Plot size is 24 m^2 with 4 replicates. At harvest (up to 19 weeks later), all tomatoes are collected and weighted. The check is an untreated control.

Meloidogyne [2] = experiment: Experiment 5: sandy soil cup test, live 2nd stage nematodes from eggs; type: in vivo; details: applied solution 3 ppm, 15 days of incubation
Method: 110 grams of dry sandy soil is put into plastic cups. The soil is treated by adding 25 ml of water containing given concentrations (in ppm) of chemicals to the soil. The soil and water is carefully mixed and thereafter 1 ml of water containing 12,000 eggs of Meloidogyne is added. After 15 days of incubation, the samples are analyzed for live 2nd stage nematodes by sieving the sand and rinsing with tap water. The amount of rinseate is adjusted to 20 ml. From the 20 ml, 3 samples of 1 ml are taken and nematodes counted, using a counting chamber.

Meloidogyne [3] = experiment: Experiment 6: clay soil cup test, live 2nd stage nematodes from eggs; type: in vivo; details: applied solution 3 ppm, 15 days of incubation
Method: 50 grams of dry clay soil is put into plastic cups. The soil is treated by adding 50 ml of water containing given concentrations (in ppm) of chemicals to the soil. The soil and water is carefully mixed, and thereafter 1 ml of water containing 10.,000 eggs of Meloidogyne is added. After 15 days of incubation, the samples are analyzed for live 2nd stage nematodes by sieving the clay, and rinsing with tap water. The amount of rinseate is adjusted to 20 ml. From the 20 ml, 3 samples of 1 ml are taken and nematodes counted, using a counting chamber.

[4] = system: nematodes (Meloidogyne spp.); details: tomato; for % yield increase over check / Total average weight of tomatoes per 100 plants: at harvest; for % average root galling: drench 1, 18, 32 and 46 days after transplantation
Method: Tomato plants are transplanted into a field infested with nematodes (Meloidogyne spp.) and treated with the treatments indicated in Table IV below 1, 18, 32 and 46 days after transplantation. The products are applied by drenching 100 ml spray solution per plant. Plot size is 42.7 m^2 with 4 replicates. At harvest (up to 19 weeks later), all tomatoes are collected and weighted. The check is an untreated control.

[5] = system: nematodes (Pratylenchus spp.); details: tomato; for % yield increase over check / Total average weight of tomatoes per plant in gr: at harvest; for % damage of roots: drench 1, 14, 27 and 40 days after transplantation
Method: Tomato plants are transplanted into a field infested with nematodes (Pratylenchus spp.) and treated with the treatments indicated in Table II below 1, 14, 27 and 40 days after transplantation. The products are applied by drenching 100 ml spray solution per plant. Plot size is 24 m^2 with 4 replicates. At harvest (up to 19 weeks later), all tomatoes are collected and weighted. The check is an untreated control.

[6] = system: nematodes (Meloidogyne spp.); details: tomato; for % yield increase over check / Total average weight of tomatoes per 100 plant in kgr: at harvest; for % root galling: drench 1, 18, 32 and 46 days after transplantation
Method: Tomato plants are transplanted into a field infested with nematodes (Meloidogyne spp.) and treated with the treatments indicated in Table III below 1, 18, 32 and 46 days after transplantation. The products are applied by drenching 100 ml spray solution per plant. Plot size is 36.7 m^2 with 4 replicates. At harvest (up to 19 weeks later), all tomatoes are collected and weighted. The check is an untreated control.

Molecule: O=C(O)CN(CCN(CC(=O)O)CC(=O)O)CC(=O)O [EDTA, ethylenediaminetetraacetic acid]
- % yield increase over check ([1]; 500 g ai/ha): 12%
- Total average weight of tomatoes per treatment ([1]; 500 g ai/ha): 784 kg
- % damage of roots ([1]; 500 g ai/ha): 25.8%
- % yield increase over check ([1]; 1000 g ai/ha): 17%
- Total average weight of tomatoes per treatment ([1]; 1000 g ai/ha): 817 kg
- % damage of roots ([1]; 1000 g ai/ha): 22.5%
- % reduction of live stages (Meloidogyne [2]): 0.1%
- Number of live 2nd stage nematodes (Meloidogyne [2]): 1650
- % reduction of live stages (Meloidogyne [3]): 0.1%
- Number of live 2nd stage nematodes (Meloidogyne [3]): 1200
- % yield increase over check ([4]; 500 g ai/ha): 6%
- Total average weight of tomatoes per 100 plants ([4]; 500 g ai/ha): 349 kg
- % average root galling ([4]; 500 g ai/ha): 34.4%
- % yield increase over check ([4]; 1000 g ai/ha): 10%
- Total average weight of tomatoes per 100 plants ([4]; 1000 g ai/ha): 360 kg
- % average root galling ([4]; 1000 g ai/ha): 23.7%

Molecule: N,N′-ethylenebis(hydroxyphenyl)glycines [EDDHA]
- % yield increase over check ([5]; 500 g ai/ha): 11%
- Total average weight of tomatoes per plant in gr ([5]; 500 g ai/ha): 3500 gr
- % damage of roots ([5]; 500 g ai/ha): 18.5%
- % yield increase over check ([5]; 1000 g ai/ha): 18%
- Total average weight of tomatoes per plant in gr ([5]; 1000 g ai/ha): 3695 gr
- % damage of roots ([5]; 1000 g ai/ha): 13.8%
- % yield increase over check ([6]; 500 g ai/ha): 13%
- Total average weight of tomatoes per 100 plant in kgr ([6]; 500 g ai/ha): 255 kgr
- % root galling ([6]; 500 g ai/ha): 35%
- % yield increase over check ([6]; 1000 g ai/ha): 17%
- Total average weight of tomatoes per 100 plant in kgr ([6]; 1000 g ai/ha): 265 kgr
- % root galling ([6]; 1000 g ai/ha): 26.1%
- % reduction of live stages (Meloidogyne [2]): 0.1%
- Number of live 2nd stage nematodes (Meloidogyne [2]): 1649
- % reduction of live stages (Meloidogyne [3]): 0.3%
- Number of live 2nd stage nematodes (Meloidogyne [3]): 1197
